Tested on: HCT-116
Assay: Cytotoxicity against human HCT116 cells
Type: functional, cell-based

First: C[C@H]1C[C@@](C)(CCCCCCCCCCCCc2ccccc2)OC1=O (relative stereo)
Second: CN(C)CCc1nccc2c1[nH]c1cc(Br)ccc12 [PLAKORTAMINE A]
The IC50 of the first is 4.5-fold higher: 14.5 µM for the first, 3.2 µM for the second. The second is the more potent here.

First: C=Cc1nccc2c1[nH]c1cc(Br)ccc12 [PLAKORTAMINE B]
Second: CN1CCC(c2nccc3c2[nH]c2cc(Br)ccc23)O1 (stereo not given) [PLAKORTAMINE D]
The IC50 of the first is 24-fold lower: 0.62 µM for the first, 15 µM for the second.

Molecule CN(CCc1nccc2c1[nH]c1cc(Br)ccc12)CCc1nccc2c1[nH]c1cc(Br)ccc12 [PLAKORTAMINE C] has an IC50 of 2.15 µM.
